Data published in patent US11331328B2, “Compositions and methods for inhibiting antiapoptotic Bcl-2 proteins as anti-aging agents” (priority 2014, dated 2022).

Tested on: senescent WI38 cells induced by replicative exhaustion (Rep-SC)
Experiment: Cell viability, LD50 in replicative senescent WI-38 cells
Format: cell-based, human
Conditions: Table 2
Description: Human WI-38 fibroblasts (WI38 cells, #CCL-75™), human IMR-90 fibroblasts (IMR90 cells, #CCL-186™), human renal epithelial cells (REC cells, #PCS-400-012™) were obtained from ACTT (Manassas, Va., USA). Mouse embryonic fibroblasts (MEF) were isolated from mouse embryos as described^1. All cells were cultured in a complete medium (CM) (Dulbecco's Modified Eagle Medium supplemented with 10% fetal bovine serum [FBS], 100 U/ml penicillin, and 100 μg/ml streptomycin [all from Atlanta Biologicals, Norcross, Ga., and USA]) in a humidified incubator at 37° C. and 5% CO2. Low passages of WI-38 cells (<25), IMR-90 (<25), REC cells (<25) and MEF (<3) were used as non-senescent controls or for induction of senescence to avoid replicative senescence. To induce replicative senescence, WI-38 cells were subcultivated until cell division ceased after about 38 passages or 60 population doublings (FIG. 5)^2. […]
Flow cytometry: Non-senescent and senescent cells were seeded into wells of 24- or 48-well at about 70% of confluence. […] Viable cells (PI^− cells) were numerated by flow cytometry at a constant flow rate and calculated as a percentage of control cells treated with vehicle using the formula: percentage of control=(Ndrug/NC)×100, where Ndrug and NC represent the absolute number of PI^− viable cells of drug-treated and vehicle-treated cells, respectively. […]

Q: For `CC1(C)CCC(c2ccc(Cl)cc2)=C(CN2CCN(c3ccc(C(=O)NS(=O)(=O)c4ccc(N[C@H](CCN5CCOCC5)CSc5ccccc5)c(S(=O)(=O)C(F)(F)F)c4)cc3)CC2)C1` [ABT263, navitoclax], which “LD50” value is on record?
A: Its value is 1.45 µM.
